Measurements taken from patent US10605810B2, “Pincers comprising antibody and aptamer conjugated via a linker which binds to the same target material and use thereof” (University-Industry Cooperation Group Of Kyung Hee …, priority 2013, dated 2020).
{NH2C6} = aminohexyl linker, H2N-(CH2)6-

Tests used:
[1] = biological target: T1, thrombin (Homo sapiens, UniProt P00734); details: read-out: Kd^app values reported in the art; cited from earlier work
T1 construct: 200 μL (2 nmol) of the thrombin solution prepared at a concentration of 10 pmol/pt was prepared; purchased Research Laboratories

[2] = tested on: SK-BR-3 cells; assay: Cell viability by MTT reduction assay, SK-BR-3
Protocol: In order to maintain the cells in the log phase, a fresh medium was resupplied two or three times a week.
The cell viability was measured using the standard 3-(4,5-dimethylthiazol-2-yl)-2,5-diphenyltetrazolium bromide (MTT) reduction assay. Simply, cells that grow exponentially were inoculated at a density of 5×10^3 per well in a 96-well with flat bottom plate (200 μL/well) and cultured at 37° C. for 24 hours.
10 μL of MTT solution was added to each well, and the cells were further cultured at 37° C. for 4 hours. The amount of formazan product was measured at 570 nm. The cell survival fraction was calculated as a percentage of the untreated control group.

[3] = tested on: HER2 epitope peptide; details: read-out: Kd for HER2 epitope peptide (reported); cited from earlier work
[4] = biological target: extracellular domain of a HER2 protein (Homo sapiens, UniProt P04626); details: cited from earlier work

For “15-mer DNA aptamer: 5′-H2N—(CH2)6-GGT TGG TGT GGT TGG-3′, specifically binds to thrombin”, the Kd [1] is listed as 20.2 nM.

For “29-mer DNA aptamer: 5′-H2N—(CH2)6-AGTCCGTGGTAGGGCAGGTTGGGGTGACT-3′, specifically binds to thrombin”, the Kd [1] is listed as 3.5 nM.

COc1cccc2c1C(=O)c1c(O)c3c(c(O)c1C2=O)C[C@@](O)(C(=O)CO)C[C@@H]3O[C@H]1C[C@H](N)[C@H](O)[C@H](C)O1 [Dox, doxorubicin] gave an IC50 ([2]; Homo sapiens, SK-BR-3, 24 h, read-out: IC50 for SK-BR-3) of 43.9 nM.

B1: anti-HER2 aptamer: anti-human epidermal growth factor 2 (HER2) aptamer, SEQ ID NO: 3, purchased from Bioneers (nucleic acid)
DNA: AACCGCCCAAATCCCTAAGAGTCTGCACTTGTCATTTTGTATATGTATTTGGTTTTTGGCTCTCACAGACACACTACACACGCACA
modifications: DNA, 5' {NH2C6}, backbone not given here; further chemistry not fully specified
For B1, the Kd [3] is given as 18.9 nM, the Kd [4] is given as 315 nM and the “cytotoxicity against SK-BR-3 cells” value ([2]; 0 nM to 100 nM, FIG. 10) is given as “does not have cytotoxicity”.
